Experiments:
[1] = test system: Human oral cancer cells KB-VIN; assay: Anti-cancer activity, KB-VIN cells; type: cell-based; conditions: KB-VIn (anti-drug-resistant nasopharyngeal carcinoma)
[2] = test system: KB (nasopharyngeal carcinoma)

[1,4-(4R)-diphenyl-2-oxazolinyl benzene] platinum nitrate complex [Platinum complex (I)]
inhibitory activity ED50 [1]: < 10.0 µg/mL | inhibitory activity ED50 [2]: < 10.0 µg/mL
